Laboratory results reported in the NIST ThermoML archive (doi:10.1016/j.fluid.2014.11.020).
± gives the expanded uncertainty stated by the source.

Assay: activity coefficient (dimensionless); of the first substance listed, at infinite dilution; xn = mol fraction of the nth substance listed
Details: Liquid, Chromatography, x1 = 0

Row | SMILES | activity coefficient (323.15 K) | activity coefficient (333.15 K) | activity coefficient (343.15 K)
1 | c1ccncc1 [pyridine] + Cn1cc[n+](COCCCOC[n+]2ccn(C)c2)c1.O=S(=O)([N-]S(=O)(=O)C(F)(F)F)C(F)(F)F.O=S(=O)([N-]S(=O)(=O)C(F)(F)F)C(F)(F)F | 0.4 ± 0.03 | 0.41 ± 0.03 | 0.41 ± 0.03
2 | CCCCCCCCCC [decane] + CCCOC[n+]1ccn(Cc2ccccc2)c1.F[B-](F)(F)F | 244 ± 17 | 220 ± 15 | 178 ± 12
3 | CCC[N+](=O)[O-] [1-nitropropane] + CCCCCCCCn1cc[n+](COCCC)c1C.O=S(=O)([N-]S(=O)(=O)C(F)(F)F)C(F)(F)F | 0.54 ± 0.04 | 0.53 ± 0.04 | 0.53 ± 0.04
4 | c1ccccc1 [benzene] + CN(C)c1cc[n+](COCCCOC[n+]2ccc(N(C)C)cc2)cc1.O=S(=O)([N-]S(=O)(=O)C(F)(F)F)C(F)(F)F.O=S(=O)([N-]S(=O)(=O)C(F)(F)F)C(F)(F)F | 0.66 ± 0.05 | 0.67 ± 0.05 | 0.68 ± 0.05
5 | C1CCCCCC1 [cycloheptane] + N#C[N-]C#N.N#C[N-]C#N.c1ccc(Cn2cc[n+](COCCCOC[n+]3ccn(Cc4ccccc4)c3)c2)cc1 | 117 ± 8 | 139 ± 9.6 | 171 ± 12
6 | C#CCCCCC [1-heptyne] + Cn1cc[n+](COCCCOC[n+]2ccn(C)c2)c1.O=S(=O)([N-]S(=O)(=O)C(F)(F)F)C(F)(F)F.O=S(=O)([N-]S(=O)(=O)C(F)(F)F)C(F)(F)F | 5.9 ± 0.4 | 6.09 ± 0.42 | 5.71 ± 0.39
7 | CCCO [propan-1-ol] + CCCOC[n+]1ccn(Cc2ccccc2)c1.F[B-](F)(F)F | 2.15 ± 0.15 | 1.92 ± 0.13 | 1.78 ± 0.12
8 | CCC(=O)CC [pentan-3-one] + CCCCCCCCn1cc[n+](COCCC)c1C.O=S(=O)([N-]S(=O)(=O)C(F)(F)F)C(F)(F)F | 0.45 ± 0.04 | 0.45 ± 0.04 | 0.47 ± 0.04
9 | c1ccsc1 [thiophene] + N#C[N-]C#N.N#C[N-]C#N.c1ccc(Cn2cc[n+](COCCCOC[n+]3ccn(Cc4ccccc4)c3)c2)cc1 | 1.7 ± 0.11 | 1.64 ± 0.11 | 1.67 ± 0.11
10 | CCc1ccccc1 [ethylbenzene] + CCCCCCCCn1cc[n+](COCCCOC[n+]2ccn(CCCCCCCC)c2C)c1C.O=S(=O)([N-]S(=O)(=O)C(F)(F)F)C(F)(F)F.O=S(=O)([N-]S(=O)(=O)C(F)(F)F)C(F)(F)F | 0.75 ± 0.05 | 0.73 ± 0.05 | 0.74 ± 0.05
11 | CCCCO [butan-1-ol] + CCCOC[n+]1ccn(C)c1.N#C[N-]C#N | 1.37 ± 0.09 | 1.32 ± 0.09 | 1.27 ± 0.08
12 | CC1CCCC1 [methylcyclopentane] + CCCOC[n+]1ccc(N(C)C)cc1.O=S(=O)([N-]S(=O)(=O)C(F)(F)F)C(F)(F)F | 7.35 ± 0.5 | 7.22 ± 0.49 | 6.1 ± 0.42
13 | C1CCCCC1 [cyclohexane] + CCCOC[n+]1ccn(Cc2ccccc2)c1.O=S(=O)([N-]S(=O)(=O)C(F)(F)F)C(F)(F)F | 4.98 ± 0.34 | 4.29 ± 0.29 | 3.99 ± 0.27
14 | CCCCCCCCCC [decane] + CCCCCCCCn1cc[n+](COCCC)c1C.O=S(=O)([N-]S(=O)(=O)C(F)(F)F)C(F)(F)F | 8.9 ± 0.61 | 8.47 ± 0.58 | 7.92 ± 0.54
15 | CC(C)O [propan-2-ol] + CCCCCCCCn1cc[n+](COCCCOC[n+]2ccn(CCCCCCCC)c2C)c1C.N#C[N-]C#N.N#C[N-]C#N | 0.4 ± 0.03 | 0.38 ± 0.03 | 0.38 ± 0.03
16 | C[N+](=O)[O-] [nitromethane] + CN(C)c1cc[n+](COCCCOC[n+]2ccc(N(C)C)cc2)cc1.O=S(=O)([N-]S(=O)(=O)C(F)(F)F)C(F)(F)F.O=S(=O)([N-]S(=O)(=O)C(F)(F)F)C(F)(F)F | 0.39 ± 0.03 | 0.39 ± 0.03 | 0.38 ± 0.03
17 | CCC(C)=O [butanone] + CCCCCCCCn1cc[n+](COCCC)c1C.O=S(=O)([N-]S(=O)(=O)C(F)(F)F)C(F)(F)F | 0.36 ± 0.03 | 0.33 ± 0.03 | 0.3 ± 0.03
18 | ClC(Cl)(Cl)Cl [tetrachloromethane] + CCCOC[n+]1ccn(C)c1.O=S(=O)([N-]S(=O)(=O)C(F)(F)F)C(F)(F)F | 3 ± 0.2 | 3.05 ± 0.21 | 2.85 ± 0.19
19 | C1CCCCC1 [cyclohexane] + CCCOC[n+]1ccn(C)c1.O=S(=O)([N-]S(=O)(=O)C(F)(F)F)C(F)(F)F | 9.55 ± 0.65 | 9.25 ± 0.63 | 9.07 ± 0.62
20 | C1CCCCCC1 [cycloheptane] + Cn1cc[n+](COCCCOC[n+]2ccn(C)c2)c1.O=S(=O)([N-]S(=O)(=O)C(F)(F)F)C(F)(F)F.O=S(=O)([N-]S(=O)(=O)C(F)(F)F)C(F)(F)F | 41.5 ± 2.8 | 51.9 ± 3.5 | 63.5 ± 4.3
21 | C1COCCO1 [1,4-dioxane] + CCCOC[n+]1ccn(Cc2ccccc2)c1.N#C[N-]C#N | 0.84 ± 0.05 | 0.88 ± 0.06 | 0.89 ± 0.06

Row | SMILES | activity coefficient (323.15 K) | activity coefficient (333.15 K) | activity coefficient (343.15 K)
22 | CCCC(C)=O [pentan-2-one] + CCCCCCCCn1cc[n+](COCCCOC[n+]2ccn(CCCCCCCC)c2C)c1C.N#C[N-]C#N.N#C[N-]C#N | 0.8 ± 0.05 | 0.8 ± 0.05 | 0.81 ± 0.05
23 | CCCCCCCCC [nonane] + CCCOC[n+]1ccn(C)c1.F[B-](F)(F)F | 553 ± 38 | 384 ± 26 | 337 ± 23
24 | CC1CCCC1 [methylcyclopentane] + CCCCCCCCn1cc[n+](COCCC)c1C.O=S(=O)([N-]S(=O)(=O)C(F)(F)F)C(F)(F)F | 2.72 ± 0.19 | 2.41 ± 0.16 | 2.27 ± 0.15
25 | C[N+](=O)[O-] [nitromethane] + Cn1cc[n+](COCCCOC[n+]2ccn(C)c2)c1.O=S(=O)([N-]S(=O)(=O)C(F)(F)F)C(F)(F)F.O=S(=O)([N-]S(=O)(=O)C(F)(F)F)C(F)(F)F | 0.31 ± 0.03 | 0.31 ± 0.03 | 0.29 ± 0.03
26 | c1ccccc1 [benzene] + Cn1cc[n+](COCCCOC[n+]2ccn(C)c2)c1.O=S(=O)([N-]S(=O)(=O)C(F)(F)F)C(F)(F)F.O=S(=O)([N-]S(=O)(=O)C(F)(F)F)C(F)(F)F | 0.94 ± 0.06 | 0.94 ± 0.06 | 0.9 ± 0.06
27 | C#CCCCC [1-hexyne] + CCCCCCCCn1cc[n+](COCCC)c1C.N#C[N-]C#N | 1.73 ± 0.12 | 2.14 ± 0.15 | 2.01 ± 0.14
28 | CCCCCCCCCC [decane] + CCCOC[n+]1ccc(N(C)C)cc1.O=S(=O)([N-]S(=O)(=O)C(F)(F)F)C(F)(F)F | 41.1 ± 2.8 | 38.5 ± 2.6 | 34.5 ± 2.4
29 | ClC(Cl)Cl [trichloromethane] + N#C[N-]C#N.N#C[N-]C#N.c1ccc(Cn2cc[n+](COCCCOC[n+]3ccn(Cc4ccccc4)c3)c2)cc1 | 1.22 ± 0.08 | 1.2 ± 0.08 | 1.33 ± 0.09
30 | C1CCCCC1 [cyclohexane] + CCCOC[n+]1ccn(C)c1.F[B-](F)(F)F | 46.7 ± 3.2 | 40.6 ± 2.8 | 36.4 ± 2.5
31 | CC1CCCCC1 [methylcyclohexane] + CCCOC[n+]1ccn(Cc2ccccc2)c1.O=S(=O)([N-]S(=O)(=O)C(F)(F)F)C(F)(F)F | 6.47 ± 0.44 | 6.14 ± 0.42 | 5.7 ± 0.39
32 | CCCCCC [hexane] + CCCOC[n+]1ccn(Cc2ccccc2)c1.N#C[N-]C#N | 32.4 ± 2.2 |  | 
33 | c1ccccc1 [benzene] + CCCOC[n+]1ccn(C)c1.O=S(=O)([N-]S(=O)(=O)C(F)(F)F)C(F)(F)F | 1.2 ± 0.08 | 1.17 ± 0.07 | 1.17 ± 0.07
34 | Cc1cccc(C)c1 [1,3-dimethylbenzene] + CCCCCCCCn1cc[n+](COCCCOC[n+]2ccn(CCCCCCCC)c2C)c1C.N#C[N-]C#N.N#C[N-]C#N | 1.36 ± 0.09 | 1.37 ± 0.09 | 1.39 ± 0.09
35 | CCCO [propan-1-ol] + CCCCCCCCn1cc[n+](COCCCOC[n+]2ccn(CCCCCCCC)c2C)c1C.N#C[N-]C#N.N#C[N-]C#N | 0.32 ± 0.03 | 0.32 ± 0.03 | 0.31 ± 0.03
36 | CCC(C)CC [3-methylpentane] + CCCCCCCCn1cc[n+](COCCCOC[n+]2ccn(CCCCCCCC)c2C)c1C.O=S(=O)([N-]S(=O)(=O)C(F)(F)F)C(F)(F)F.O=S(=O)([N-]S(=O)(=O)C(F)(F)F)C(F)(F)F | 3.59 ± 0.24 | 3.36 ± 0.23 | 3.13 ± 0.21
37 | CCc1ccccc1 [ethylbenzene] + CCCOC[n+]1ccc(N(C)C)cc1.O=S(=O)([N-]S(=O)(=O)C(F)(F)F)C(F)(F)F | 1.45 ± 0.1 | 1.53 ± 0.1 | 1.53 ± 0.1
38 | C#CCCCC [1-hexyne] + CCCCCCCCn1cc[n+](COCCC)c1C.O=S(=O)([N-]S(=O)(=O)C(F)(F)F)C(F)(F)F | 1.39 ± 0.09 | 1.36 ± 0.09 | 1.34 ± 0.09
39 | CO [methanol] + CCCOC[n+]1ccn(Cc2ccccc2)c1.N#C[N-]C#N | 0.39 ± 0.03 | 0.4 ± 0.03 | 0.4 ± 0.03
40 | CCc1ccccc1 [ethylbenzene] + CCCCCCCCn1cc[n+](COCCCOC[n+]2ccn(CCCCCCCC)c2C)c1C.N#C[N-]C#N.N#C[N-]C#N | 1.32 ± 0.09 | 1.34 ± 0.09 | 1.36 ± 0.09
41 | CCCCCCCC [octane] + Cn1cc[n+](COCCCOC[n+]2ccn(C)c2)c1.O=S(=O)([N-]S(=O)(=O)C(F)(F)F)C(F)(F)F.O=S(=O)([N-]S(=O)(=O)C(F)(F)F)C(F)(F)F | 60.4 ± 4.1 | 60.6 ± 4.2 | 38.4 ± 2.6
42 | CCCCCCCC [octane] + CCCCCCCCn1cc[n+](COCCC)c1C.O=S(=O)([N-]S(=O)(=O)C(F)(F)F)C(F)(F)F | 5.76 ± 0.39 | 5.48 ± 0.37 | 5.17 ± 0.35
